Measurements published in paper PMC9655618 (Cancers, 2022).
Where two headings read alike, the source gives them in different places.

Experiments:
MCF-7 cells = test: MTT cell viability assay; assay type: cell-based, human; conditions: 10%FBS growth media
Method: (§1) Straightforward, the tetrazolium salt 3-(4,5-methyltiazol-2yl-)-2,5diphenyl-tetrazolium bromide (MTT) (Applichen, Darmstadt, Germany) was added to cells, incubated for 2–4 h at 37 °C, and lysed in 10% SDS.

SK-BR-3 cells = test: MTT cell viability assay; assay type: cell-based, human; conditions: 10%FBS growth media
Method: as §1

[1] = test system: ERα-mediated transcription (3xERE-luciferase), T47D-KBluc cells; test: ER-dependent transcriptional activity, 3xERE-luciferase reporter in T47D-KBluc cells; conditions: for effect on E2-induced luciferase activity: until dropping to 20% Emax
BT-549 cells = test: MTT cell viability assay; assay type: cell-based, human; conditions: 10%FBS growth media
Method: as §1

Hs-578T cells = test: MTT cell viability assay; assay type: cell-based, human; conditions: 72 h, 10%FBS growth media
Method: as §1

MCF-7/BUS cells = test: MTT cell viability assay; assay type: cell-based, human; conditions: 72 h, read-out: IC50 (μM) MCF-7/BUS
Method: as §1

MDA-MB-231 cells = test: MTT cell viability assay; assay type: cell-based, human; conditions: 10%FBS growth media
Method: as §1

T47D cells = test: MTT cell viability assay; assay type: cell-based, human; conditions: 72 h, 10%FBS growth media
Method: Straightforward, the tetrazolium salt 3-(4,5-methyltiazol-2yl-)-2,5diphenyl-tetrazolium bromide (MTT) (Applichen, Darmstadt, Germany) was added to cells, incubated for 2–4 h at 37 °C, and lysed in 10% SDS. The mitochondrial metabolization of the tetrazolium salt was determined by the analysis of the optical density at 595 nm, measured with the iMark microplate Reader (Bio–Rad, Irvine, CA, USA).

[2] = test system: T47D estrogen-depleted cells; test: E2-induced proliferation of estrogen-depleted cells (AUC of growth kinetics); assay type: cell-based; conditions: for EC50: Homo sapiens, T47D, 240 h, read-out: AUC (%) EC50 (μM)
Method: To monitor long-term growth, human ER+ BC (T47-D, MCF-7, MCF-7/BUS), ER+ endometrial (Ishiwaka, High Point, NC, USA), or non-malignant breast (MCF-10A) cells were seeded at 3000–6000 cells per well. […] When indicated, cells were estrogen-deprived in a 10DCC-FBS supplemented medium for one week. […] Cytotoxicity was monitored by using YOYO-1 (Invitrogen, Waltham, MA, USA). Cell proliferation and cytotoxicity were monitored by sequential real-time microphotographs in an IncuCyte HD real-time imaging system (Essen BioScience, Hertfordshire, UK) for 5–10 days. The area under the curve (AUC) was then analyzed to know both the kinetics and dose-effect relationships. […] Next, cells were treated with VEH (0.05% DMSO) or test compounds for 5–10 days. Spheroid size and cell cytotoxicity were recorded with the Incucyte SX5 Live-Cell Analysis Instrument (Sartorius AG, Göttingen, Germany). To calculate the spheroid growth area, confluence measurements were taken considering the largest brightfield object area (µm^2). Cytotoxicity was monitored by using YOYO-1 (Essen Bioscience, Hertfordshire, UK).

[3] = test system: alkaline phosphatase (ALP) activity in Ishikawa cells; test: Alkaline phosphatase assay; assay type: cell-based, human; conditions: E2 10 nM
Method: Human endometrium cells ([…]) were cultured in MEM without phenol red with Earle's Salts culture, which was supplemented with estrogen-deprived 10 DCC-FBS du-ring 5 days. […] Cells were washed with ice-cold PBS, and Alkaline Phosphatase (ALP) activity was measured by using ALP Assay Kit (Abcam, Cambridge, MA, USA). The substrate p-nitrophenyl phosphate (pNPP) and the ALP enzyme were used to detect ALP activity by the analysis of the optical density at 405 nm in the iMark microplate Reader (Bio-Rad, Irvine, CA, USA). […] Protein concentration was quantified with the bicinchoninic acid assay (BCA) kit (Bio-Rad).

Ishikawa cells = test: MTT cell viability assay; assay type: cell-based, human; conditions: read-out: IC50 (μM) ISHIKAWA, 72 h, 10%FBS growth media
Method: as §1

MCF-10A cells = test: MTT cell viability assay; assay type: cell-based, human; conditions: 72 h, 10%FBS growth media
Method: as §1

VERO cells = test: MTT cell viability assay; assay type: cell-based, monkey; conditions: 72 h, 10%FBS growth media
Method: as §1

[4] = test system: glucocorticoid receptor (GR)-dependent transcriptional activity, MDA-kb2 cells; test: GR-mediated transcription, luciferase reporter in MDA-kb2 cells (dexamethasone); conditions: DEX 100 nM
[5] = test system: ERα, pS2 and PR mRNA in Ishikawa cells; test: Quantitative real-time PCR of ERα-regulated genes; assay type: cell-based, human; conditions: 3 h pretreatment, E2 10 nM 24 h
Method: (§2) For gene expression analysis, MCF-7 and Ishikawa cells were deprived of steroid hormones by using a 10DCC-FBS medium for five days. Then, 1,500,000 cells/dish were seeded in 5DCC-FBS, followed by treatment with test compounds. Total RNA was isolated by using TRItidy G™ (Panreac Applichem ITW Reagents, Darmstadt, Germany). The concentration and purity of RNA were determined with a NanoDrop 1000 spectrophotometer (Wilmington, NC, USA). Then, 1 µg of total RNA was reversed and amplified with the iScriptTM kit (Bio-Rad) following the manufacturer’s protocol. SYBR Green PCR Master mix (Applied Biosystems, Bedford, MA, USA) reagent and exon-specific primers for ERα were used for Real-time quantitative PCR (qPCR). Gene expression was analyzed with an Mx3005P qPCR System (Agilent, Santa Clara, CA, USA), and cycle threshold values were calculated using MxPro qPCR Software (Agilent, CA, USA). Target gene expression was normalized to the expression of the 18S housekeeping gene. Data were expressed as relative expression values according to the comparative CT method for qPCR [42].

[6] = test system: ERα, pS2 and PR mRNA in MCF-7 cells; test: Quantitative real-time PCR of ERα-regulated genes; assay type: cell-based, human; conditions: 3 h pretreatment, E2 10 nM 24 h; 32 5 µM, 35 10 µM, ICI 0.1 µM, 4-OHTAM 1 µM
Method: as §2

| SMILES | IC50 (MCF-7 cells; Homo sapiens, MCF7, 72 h) [µM] | IC50 (SK-BR-3 cells; Homo sapiens, SK-BR-3, 72 h) [µM] | effect on E2-induced luciferase activity [1] | IC50 (Hs-578T cells; Homo sapiens, Hs-578T) [µM] | IC50 (MDA-MB-231 cells; Homo sapiens, MDA-MB-231, 72 h) [µM] | IC50 (T47D cells; Homo sapiens, T47D) [µM] | IC50 (Ishikawa cells; Homo sapiens, Ishikawa) [µM] | also measured |
| --- | --- | --- | --- | --- | --- | --- | --- | --- |
| COc1ccc(N2C(=O)C(c3ccccc3OC)=CC2(O)c2ccc([N+](=O)[O-])cc2)cc1 (stereo not drawn) [compound 50, 5-hydroxy-3-(2-methoxyphenyl)-1-(4-methoxyphenyl)-5-(4-nitrophenyl)-1H-pyrrol-2(5H)-one] | 6.17 ± 2.66 | > 10 | reduced E2-induced luciferase activity | – | – | – | – | – |
| COc1ccc(N2C(=O)C(c3ccccc3)=CC2(O)c2ccc(OC)cc2)cc1 (stereo not drawn) [compound 9, 5-hydroxy-1,5-bis(4-methoxyphenyl)-3-phenyl-1H-pyrrol-2(5H)-one] | > 10 | > 10 | – | > 10 | > 10 | > 10 | – | IC50 (BT-549 cells; Homo sapiens, BT-549, 72 h): > 10 µM; IC50 (MCF-7/BUS cells; Homo sapiens, MCF7/BUS): > 10 µM |
| COc1ccc(C2(O)C=C(c3ccccc3)C(=O)N2Cc2ccccc2)cc1 (stereo not drawn) [compound 8, 1-benzyl-5-hydroxy-5-(4-methoxyphenyl)-3-phenyl-1H-pyrrol-2(5H)-one] | – | – | reduced E2-induced luciferase activity | – | – | – | – | – |
| C[C@]12CC[C@@H]3c4ccc(O)cc4CC[C@H]3[C@@H]1CC[C@@H]2O [E2, 17β-estradiol, reference compound] | – | – | – | – | – | – | – | EC50 [2]: 0.0071 nM; increase of ALP activity [3]: 30 fold; maximal activity (Emax) reached by E2 ([1]; E2+VEH): 104.90 ± 2.01%; EC50 ([1]; Homo sapiens, read-out: EC50 of E2, ER-dependent transcriptional activity, E2 alone (E2+VEH)): 4.48 ± 0.42 pM; Emax ([1]; Homo sapiens, read-out: maximal activity (Emax) reached by E2, E2+VEH): 99.8 ± 8.44%; maximal luciferase activity or Emax ([1]; induced by E2): 15.19 ± 1.71 fold induction; EC50 ([1]; read-out: EC50 of E2, ER-dependent transcriptional activity, E2 alone (E2+VEH)): 4.57 ± 0.42 pM |
| COc1ccc(C2=CC(O)(c3cccc([N+](=O)[O-])c3)N(Cc3ccccc3)C2=O)cc1 (stereo not drawn) [compound 40, 1-benzyl-5-hydroxy-3-(4-methoxyphenyl)-5-(3-nitrophenyl)-1H-pyrrol-2(5H)-one] | – | – | reduced E2-induced luciferase activity | – | – | – | – | – |
| O=C1C(c2ccccc2)=CC(O)(c2ccccc2)N1C1CCCCC1 (stereo not drawn) [compound 4, 1-cyclohexyl-5-hydroxy-3,5-diphenyl-1H-pyrrol-2(5H)-one] | > 10 | > 10 | reduced E2-induced luciferase activity | > 10 | > 10 | > 10 | > 10 | IC50 (MCF-10A cells; Homo sapiens, MCF-10A): 7.17 ± 2.07 µM; IC50 (VERO cells; Primates, Vero): > 25 µM |
| C[C@@H]1C[C@H]2[C@@H]3CCC4=CC(=O)C=C[C@]4(C)[C@@]3(F)[C@@H](O)C[C@]2(C)[C@@]1(O)C(=O)CO [DEX, dexamethasone, reference compound] | – | – | – | – | – | – | – | maximal luciferase activity or Emax [4]: 42.07 ± 14.33 fold induction |
| COc1cccc(C2=CC(O)(c3ccc([N+](=O)[O-])cc3)N(Cc3ccccc3)C2=O)c1 (stereo not drawn) [compound 46, 1-benzyl-5-hydroxy-3-(3-methoxyphenyl)-5-(4-nitrophenyl)-1H-pyrrol-2(5H)-one] | – | – | reduced E2-induced luciferase activity | – | – | – | – | – |
| C[C@]12CC[C@@H]3c4ccc(O)cc4C[C@@H](CCCCCCCCC[S+]([O-])CCCC(F)(F)C(F)(F)F)[C@H]3[C@@H]1CC[C@@H]2O (stereo partly drawn) [ICI, ICI-182,780, reference compound] | – | – | – | – | – | – | – | IC50 (BT-549 cells; 72 h): > 25 µM; IC50 (Hs-578T cells): > 25 µM; IC50 (Ishikawa cells): > 10 µM; IC50 (MCF-10A cells): > 10 µM; IC50 (MCF-7 cells; 72 h): 0.52 ± 0.16 µM; IC50 (MCF-7/BUS cells; 10%FBS growth media, MTT): 0.0006 µM; IC50 (MDA-MB-231 cells; 72 h): > 25 µM; IC50 (SK-BR-3 cells; 72 h): > 50 µM; IC50 (T47D cells): 14.9 ± 5.19 µM; IC50 (VERO cells): > 10 µM; IC50 ([2]; presence of E2 (0.1 nM), 10 days): 0.000283 µM; effect on E2-induced mRNA expression [5]: blocked E2-induced mRNA levels of PR and pS2; effect on E2-induced mRNA expression [6]: blocked E2-induced mRNA levels of PR and pS2; E/Emax (%) VEH ([1]; compounds 10 µM, 3 h pretreatment, then vehicle 16–24 h, relative to Emax of E2): −9.15 ± 3.99%; IC50 ([1]; read-out: IC50 (µM) on E2-induced luciferase activity, dose-response, 3 h pretreatment, then E2 0.1 nM 16–24 h): 0.00019 µM; IC50 ([1]; read-out: IC50 on E2-induced ER-dependent transcriptional activity, co-incubation with E2): 0.0002 ± 8e-05 µM |
| O=C1C(c2ccc3c(c2)OCO3)=CC(O)(c2ccccc2)N1Cc1ccccc1 (stereo not drawn) [compound 26, 3-(benzo[d][1,3]dioxol-5-yl)-1-benzyl-5-hydroxy-5-phenyl-1H-pyrrol-2(5H)-one] | > 10 | > 10 | reduced E2-induced luciferase activity | > 10 | 9.71 ± 0.3 | > 10 | 10.1 ± 0.11 | – |
| CCCc1c(-c2ccc(O)cc2)nn(-c2ccc(O)cc2)c1-c1ccc(O)cc1 [PPT, 1,3,5-tris(4-hydroxyphenyl)-4-propyl-1H-pyrazole, reference compound] | – | – | – | – | – | – | – | EC50 [2]: 0.157 nM |
| COc1ccc(N2C(=O)C(c3cccc([N+](=O)[O-])c3)=CC2(O)c2cccc(OC)c2)cc1 (stereo not drawn) [compound 38, 5-hydroxy-5-(3-methoxyphenyl)-1-(4-methoxyphenyl)-3-(3-nitrophenyl)-1H-pyrrol-2(5H)-one] | > 10 | > 10 | reduced E2-induced luciferase activity | > 10 | > 10 | > 10 | > 10 | IC50 (MCF-10A cells; Homo sapiens, MCF-10A): > 10 µM; IC50 (VERO cells; Primates, Vero): > 25 µM |
| COc1ccc(C2=CC(O)(c3ccccc3)N(C3CCCCC3)C2=O)cc1F (stereo not drawn) [compound 16, 1-cyclohexyl-3-(3-fluoro-4-methoxyphenyl)-5-hydroxy-5-phenyl-1H-pyrrol-2(5H)-one] | > 10 | > 10 | – | > 10 | > 10 | > 10 | > 10 | IC50 (BT-549 cells; Homo sapiens, BT-549, 72 h): > 10 µM; IC50 (MCF-7/BUS cells; Homo sapiens, MCF7/BUS): > 10 µM; estrogenic effect on ER-dependent transcriptional activity ([1]; 10 μM, absence of E2): partial induction of ER-dependent transcriptional activity |
